Measured values reported in patent US20050026949A1, “Methods of therapeutic treatment using amounts of retinoids without regard to body weight” (Allergan, Inc., priority 2003, published 2005).

What was measured:
[1] = tested on: RARs; test: Activation of RARs; format: cell-based
[2] = tested on: RXRs; test: Activation of RXRs; format: cell-based
[3] = oral, cited from earlier work; for bioavailability in the presence of food: Colburn et al
[4] = tested on: patients in the studies of acitretin; conditions: published data (N = 525); cited from earlier work
[5] = cited from earlier work
[6] = in vivo; cited from earlier work
[7] = tested on: sebaceous glands; conditions: published reports (Geiger); cited from earlier work
[8] = tested on: patients in the studies of isotretinoin; conditions: published data (N = 525); cited from earlier work
[9] = Body weight effect on plasma tazarotenic acid Cmax and AUC (Example 7); format: in vivo, human; conditions: 6 mg tazarotene daily, day 9
Procedure: The LC-MS/MS test for simultaneous detection of tazarotene and tazarotenic acid may be run as follows. One ml of plasma (EDTA-treated) is diluted with 1.0 ml of water. Diluted plasma is extracted using solid phase extraction (SPE) on a C18 cartridge. The eluate is evaporated, reconstituted in a water/methanol-based mobile phase, and injected onto a 4.6×50 mm, 3 μm pore size C-8 reverse phase high pressure liquid chromatography (HPLC) column (Agilent, Wilmington, Del.). Compounds are gradient-eluted at 1.2 mL/min and detected using an API 3000 triple quadrupole mass spectrometer with an Atmospheric Pressure Chemical Ionization (APCI) source (PE-Sciex, Concord, Ontario, Canada). Molecular reaction monitoring enhances the sensitivity and selectivity of this assay by collisionally dissociating the protonated molecules for the analyte and an internal standard thereby forming the product ions. The specific precursor-product ion pair monitored are m/z 352→324 for tazarotene, m/z 359→331 for the tazarotene internal standard, m/z 324→294 for tazarotenic acid, and m/z 331+298 for the tazarotenic acid internal standard. The lower limit of quantitation at assay range tested is 0.1 ng/mL, with a coefficient of variation and deviation from nominal concentration of <15%. […]

[10] = biological target: T1, RAR-A (Homo sapiens, UniProt P10276); test: RAR-alpha activity; format: cell-based
T1 sequence (P10276 1-462): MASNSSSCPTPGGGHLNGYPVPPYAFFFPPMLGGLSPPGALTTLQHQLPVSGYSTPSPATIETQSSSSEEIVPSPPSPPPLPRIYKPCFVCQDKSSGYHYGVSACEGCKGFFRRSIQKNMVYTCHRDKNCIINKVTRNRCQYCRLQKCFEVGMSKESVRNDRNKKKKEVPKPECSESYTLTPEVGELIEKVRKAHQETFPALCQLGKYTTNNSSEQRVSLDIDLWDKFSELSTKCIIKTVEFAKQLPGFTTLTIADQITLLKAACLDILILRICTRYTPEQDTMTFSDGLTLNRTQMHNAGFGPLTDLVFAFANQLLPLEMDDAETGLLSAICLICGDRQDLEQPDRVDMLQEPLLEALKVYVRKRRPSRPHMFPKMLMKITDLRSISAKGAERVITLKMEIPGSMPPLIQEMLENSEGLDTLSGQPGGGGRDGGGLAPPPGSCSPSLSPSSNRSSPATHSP

[11] = topical administration of tazarotene; cited from earlier work
[12] = Food effect on pharmacokinetics of tazarotenic acid after oral tazarotene (Example 1); format: in vivo, human; conditions: 6.3 mg oral tazarotene
Procedure: For the purposes of this application, the bioavailability of a drug may be based on the human pharmokinetic parameters of maximum blood concentration (Cmax) and Area under the blood concentration-time curve (AUC).
The LC-MS/MS test for simultaneous detection of tazarotene and tazarotenic acid may be run as follows. One ml of plasma (EDTA-treated) is diluted with 1.0 ml of water. Diluted plasma is extracted using solid phase extraction (SPE) on a C18 cartridge. The eluate is evaporated, reconstituted in a water/methanol-based mobile phase, and injected onto a 4.6×50 mm, 3 μm pore size C-8 reverse phase high pressure liquid chromatography (HPLC) column (Agilent, Wilmington, Del.). Compounds are gradient-eluted at 1.2 mL/min and detected using an API 3000 triple quadrupole mass spectrometer with an Atmospheric Pressure Chemical Ionization (APCI) source (PE-Sciex, Concord, Ontario, Canada). Molecular reaction monitoring enhances the sensitivity and selectivity of this assay by collisionally dissociating the protonated molecules for the analyte and an internal standard thereby forming the product ions. The specific precursor-product ion pair monitored are m/z 352→324 for tazarotene, m/z 359→331 for the tazarotene internal standard, m/z 324→294 for tazarotenic acid, and m/z 331+298 for the tazarotenic acid internal standard. The lower limit of quantitation at assay range tested is 0.1 ng/mL, with a coefficient of variation and deviation from nominal concentration of <15%.

With `CC1(C)CC[S+]([O-])c2ccc(C#Cc3ccc(C(=O)O)cn3)cc21` (stereo not drawn) [AGN 190844] the “activation of RARs” value [1] was “does not activate” and the “activation of RXRs” value [2] was “does not activate”.

For `COc1cc(C)c(/C=C/C(C)=C/C=C/C(C)=C/C(=O)O)c(C)c1C` [Acitretin, acitretin], the “bioavailability in the presence of food” value [3] is listed as “bioavailability is increased in the presence of food”, the Alopecia [4] is listed as 319 (60.8) NUMBER OF (%) OF PATIENTS and the Arthralgia [4] is listed as 102 (19.4) NUMBER OF (%) OF PATIENTS. For the same compound, the Atrophy of skin [4] was 64 (12.2) NUMBER OF (%) OF PATIENTS, the Back pain [4] was 41 (7.8) NUMBER OF (%) OF PATIENTS and the Cheilitis [4] was 429 (81.7) NUMBER OF (%) OF PATIENTS. For the same compound, the “Dry Skin” value [4] was 174 (33.1) NUMBER OF (%) OF PATIENTS, the “Dry mouth/Oral dryness” value [4] was 76 (14.5) NUMBER OF (%) OF PATIENTS and the Epistaxis [4] was 61 (11.6) NUMBER OF (%) OF PATIENTS. For the same compound, the “Erythematous rash/Erythema” value [4] was 57 (10.9) NUMBER OF (%) OF PATIENTS, the Hyperesthesia [4] was 66 (12.6) NUMBER OF (%) OF PATIENTS and the “Nail Disorder” value [4] was 170 (32.4) NUMBER OF (%) OF PATIENTS. For the same compound, the Paresthesia [4] was 56 (10.7) NUMBER OF (%) OF PATIENTS, the Paronychia/Nail disorder [4] was 66 (12.6) NUMBER OF (%) OF PATIENTS and the Pruritus [4] was 157 (29.9) NUMBER OF (%) OF PATIENTS. The Rhinitis [4] was 153 (29.1) NUMBER OF (%) OF PATIENTS, the Rigors/Chills [4] was 67 (12.8) NUMBER OF (%) OF PATIENTS and the “Skin peeling/Desquamation” value [4] was 345 (65.7) NUMBER OF (%) OF PATIENTS. The “Sticky skin/Skin disorder” value [4] was 129 (24.6) NUMBER OF (%) OF PATIENTS, the Xerophthalmia/Eye disorder [4] was 112 (21.3) NUMBER OF (%) OF PATIENTS and the “effect on contraceptive effect of microdosed progestin preparations” value ([5]; in vivo) was “interferes with the contraceptive effect”. The “bioavailability in relation to body weight” value (from here on “bioavailability in relation”) [6] was “increased with a reduced body weight”.

For `CC1=C(/C=C/C(C)=C/C=C/C(C)=C\C(=O)O)C(C)(C)CCC1` [Isotretinoin, isotretinoin], the “bioavailability in the presence of food” value [3] is given as “bioavailability is increased in the presence of food”, the “total dose needed to reach the same peak blood concentration in the fasted state as following a high fat meal” value [3] is given as “more than doubled” and the “decrease in sebum secretion rate” value [7] is given as “about 90%”. The “effect on blood concentrations of coadministered contraceptive components” value ([5]; coadministered contraceptive tablets) was “decreases blood concentrations of both ethinyl estradiol and norethindrone”, the “bioavailability in relation” value [6] was “increased with a reduced body weight” and the Cheilitis [8] was 472 (90.2) NUMBER OF (%) OF PATIENTS. For the same compound, the Conjunctivitis [8] was 201 (38.4) NUMBER OF (%) OF PATIENTS, the “Desquamation central face/Desquamation” value [8] was 187 (35.8) NUMBER OF (%) OF PATIENTS and the Dry Skin [8] was 172 (32.9) NUMBER OF (%) OF PATIENTS. The Dry nose [8] was 136 (26.0) NUMBER OF (%) OF PATIENTS, the Epistaxis [8] was 121 (23.1) NUMBER OF (%) OF PATIENTS and the “Fingertip peeling/Desquamation” value [8] was 63 (12.0) NUMBER OF (%) OF PATIENTS. For the same compound, the Headache [8] was 44 (8.4) NUMBER OF (%) OF PATIENTS, the Irritation of eyes [8] was 85 (16.3) NUMBER OF (%) OF PATIENTS and the Pruritus [8] was 127 (24.3) NUMBER OF (%) OF PATIENTS. For the same compound, the “Red Scaly face/Desquamation” value [8] was 54 (10.3) NUMBER OF (%) OF PATIENTS and the “Skin fragility/Skin disorder” value [8] was 164 (31.4) NUMBER OF (%) OF PATIENTS.

For `C=C(c1ccc(C(=O)O)cc1)c1cc2c(cc1C)C(C)(C)CCC2(C)C` [bexarotene], the “bioavailability in the presence of food” value [3] is given as “bioavailability is increased in the presence of food” and the “effect on plasma concentration of coadministered tamoxifen” value ([5]; coadministration with tamoxifen) is given as “reduced plasma concentration of tamoxifen”.

For `CCOC(=O)/C=C(C)/C=C/C=C(C)/C=C/c1c(C)cc(OC)c(C)c1C` [etretinate], the “bioavailability in relation” value [6] is listed as “increased with a reduced body weight”.

For `CC1(C)CCSc2ccc(C#Cc3ccc(C(=O)O)cn3)cc21` [tazarotenic acid], the “receptor specificity and selectivity” value [1] was “specificity for the RARs and selectivity for RAR-β and RAR-γ”, the “correlation of Cmax or AUC with body weight” value [9] was “no correlation between either Cmax or AUC and body weight” and the “activation of RXRs” value [2] was “does not activate”. For the same compound, the RAR-A activity [10] was “minimal”, the “maximum blood concentration of tazarotenic acid” value [11] was “less than 30 ng/ml” and the “90% CI ratio of Cmax values” ([12]; fed vs fasted) was “partially outside the 80-125% boundary”. For the same compound, the “90% confidence intervals of AUC ratios (test/reference)” value ([12]; fed vs fasted) was “completely within the 80-125% boundary”, the “average ratio of Cmax (test/reference)” value ([12]; fed vs fasted, Day 0) was 1.00 and the “average ratio of Cmax (test/reference)” value ([12]; fed vs fasted, Day 9) was 0.829. The “effect of high-fat meal on bioavailability or pharmacokinetics of tazarotenic acid” value ([12]; within 30 minutes after high fat breakfast vs after 8-10 hour fast, single and multiple dose, healthy subjects) was “does not substantially affect”.
